For one assay, the system named is eclipta prostrata. The assay can be described thus: Herbicidal activity, pot culture method (primary and secondary screening test). The assay is classed as in vivo. As to conditions: primary screening, pot culture, 150 g/ha, sprayed at 3-leaf stage, result 15 days later. From the text:
(§1) This test example is for describing the herbicidal activity inhibition ratio (%) (the dose is 150 g/ha) of the compound with a structure shown in Formula (I). Primary screening test (pot culture method): The test targets are abutilon theophrasti, digitaria sanguinalis, amaranthus retroflexus, echinochloa crusgalli, eclipta prostrata and setaria viridis. Take flowerpots with an inner diameter of 6 cm, put composite soil (vegetable garden soil:seedling matrix=1:2, v/v) into them till 3⁄4 of flowerpot height, directly sow the above six weed targets (budding rate>85%), cover them with 0.2 cm thick soil, and keep them for future use when the weeds grow to 3-leaf stage. Each compound is dissolved in N,N-dimethylformamide at a dose of 150 g/ha and diluted with distilled water into a 0.2 g/L solution. The solution is sprayed through an automatic spray tower. After the solution on weed leaves is aired dry, the flowerpots are moved into a greenhouse for cultivation. The result is investigated 15 days later. By the same method adopted in primary screening test, a secondary screening test is done on some typical compounds, such as: 5, 6, 20, 21, 23, 34, 47, 65, 66, 70 and 91 at a reduced dose, and the test result is compared with mesotrione which is commercially available and has a good herbicidal effect. The test method is same as that adopted in primary screening test. Mesotrione is bought from Hubei […] Chemical Co., Ltd.
On to `Cn1c(=O)n(-c2ccccc2)c(=O)c2cc(C(=O)C3=C(O)CCCC3=O)ccc21` [Compound 35], for which the “herbicidal activity inhibition ratio (%), Eclipta prostrata” value is 70%.

Regarding `Cn1c(=O)n(-c2ccc(Cl)cc2)c(=O)c2cc(C(=O)C3=C(O)CC(C)(C)CC3=O)ccc21` [Compound 2], the “herbicidal activity inhibition ratio (%), Eclipta prostrata” value came out at 75%.

`COc1ccc(-n2c(=O)c3cc(C(=O)C4=C(O)CC(C)(C)CC4=O)ccc3n(C)c2=O)cc1` [Compound 58]: the “herbicidal activity inhibition ratio (%), Eclipta prostrata” value was 68%.

As to `Cn1c(=O)n(-c2cc(C(F)(F)F)ccc2Cl)c(=O)c2cc(C(=O)C3=C(O)CCCC3=O)ccc21` [Compound 60], the “herbicidal activity inhibition ratio (%), Eclipta prostrata” value is 0%.

Take `Cc1ccccc1-n1c(=O)[nH]c2ccc(C(=O)C3=C(O)CC(C)(C)CC3=O)cc2c1=O` [Compound 59]: the “herbicidal activity inhibition ratio (%), Eclipta prostrata” value came to 25%.

As to `Cc1ccccc1-n1c(=O)c2c(C)c(C(=O)C3=C(O)CCCC3=O)ccc2n(C)c1=O` [Compound 82], the “herbicidal activity inhibition ratio (%), Eclipta prostrata” value is on record as 100%.

As to `Cn1c(=O)n(-c2cccc(Cl)c2)c(=O)c2cc(C(=O)C3=C(O)CC(C)(C)CC3=O)ccc21` [Compound 4], the “herbicidal activity inhibition ratio (%), Eclipta prostrata” value came to 90%.

Another assay relates to amaranthus retroflexus. The assay is described as above. The assay is classed as in vivo. As to conditions: primary screening, pot culture, 150 g/ha, sprayed at 3-leaf stage, result 15 days later.
Excerpt: as §1
As for `Cn1c(=O)n(-c2ccccc2)c(=O)c2cc(C(=O)C3=C(O)CCCC3=O)ccc21` [Compound 35], the “herbicidal activity inhibition ratio (%), Amaranthus retroflexus” value is on record as 100%.

With `Cn1c(=O)n(-c2ccc(Cl)cc2)c(=O)c2cc(C(=O)C3=C(O)CC(C)(C)CC3=O)ccc21` [Compound 2], the “herbicidal activity inhibition ratio (%), Amaranthus retroflexus” value was determined as 95%.

Regarding `COc1ccc(-n2c(=O)c3cc(C(=O)C4=C(O)CC(C)(C)CC4=O)ccc3n(C)c2=O)cc1` [Compound 58], the “herbicidal activity inhibition ratio (%), Amaranthus retroflexus” value worked out at 90%.

In the case of `Cn1c(=O)n(-c2cc(C(F)(F)F)ccc2Cl)c(=O)c2cc(C(=O)C3=C(O)CCCC3=O)ccc21` [Compound 60], the “herbicidal activity inhibition ratio (%), Amaranthus retroflexus” value was 70%.

For the compound `Cc1ccccc1-n1c(=O)[nH]c2ccc(C(=O)C3=C(O)CC(C)(C)CC3=O)cc2c1=O` [Compound 59], the “herbicidal activity inhibition ratio (%), Amaranthus retroflexus” value was 30%.

For the compound `Cc1ccccc1-n1c(=O)c2c(C)c(C(=O)C3=C(O)CCCC3=O)ccc2n(C)c1=O` [Compound 82], the “herbicidal activity inhibition ratio (%), Amaranthus retroflexus” value is 100%.

As for `Cn1c(=O)n(-c2cccc(Cl)c2)c(=O)c2cc(C(=O)C3=C(O)CC(C)(C)CC3=O)ccc21` [Compound 4], the “herbicidal activity inhibition ratio (%), Amaranthus retroflexus” value stood at 100%.

A further assay has as its system digitaria sanguinalis. The description is as above. The assay is classed as in vivo. As to conditions: primary screening, pot culture, 150 g/ha, sprayed at 3-leaf stage, result 15 days later.
Excerpt: as §1
As to `Cn1c(=O)n(-c2ccccc2)c(=O)c2cc(C(=O)C3=C(O)CCCC3=O)ccc21` [Compound 35], the “herbicidal activity inhibition ratio (%), Digitaria sanguinalis” value came to 65%.

For the compound `Cn1c(=O)n(-c2ccc(Cl)cc2)c(=O)c2cc(C(=O)C3=C(O)CC(C)(C)CC3=O)ccc21` [Compound 2], the “herbicidal activity inhibition ratio (%), Digitaria sanguinalis” value is recorded as 90%.

As to `COc1ccc(-n2c(=O)c3cc(C(=O)C4=C(O)CC(C)(C)CC4=O)ccc3n(C)c2=O)cc1` [Compound 58], the “herbicidal activity inhibition ratio (%), Digitaria sanguinalis” value stood at 88%.

Consider `Cn1c(=O)n(-c2cc(C(F)(F)F)ccc2Cl)c(=O)c2cc(C(=O)C3=C(O)CCCC3=O)ccc21` [Compound 60], for which the “herbicidal activity inhibition ratio (%), Digitaria sanguinalis” value came out at 40%.

Turning to `Cc1ccccc1-n1c(=O)[nH]c2ccc(C(=O)C3=C(O)CC(C)(C)CC3=O)cc2c1=O` [Compound 59], the “herbicidal activity inhibition ratio (%), Digitaria sanguinalis” value was 0%.

For the compound `Cc1ccccc1-n1c(=O)c2c(C)c(C(=O)C3=C(O)CCCC3=O)ccc2n(C)c1=O` [Compound 82], the “herbicidal activity inhibition ratio (%), Digitaria sanguinalis” value was 100%.

Take `Cn1c(=O)n(-c2cccc(Cl)c2)c(=O)c2cc(C(=O)C3=C(O)CC(C)(C)CC3=O)ccc21` [Compound 4]: the “herbicidal activity inhibition ratio (%), Digitaria sanguinalis” value is on record as 100%.

The subject of another assay is setaria viridis. The description is as above. The assay is classed as in vivo. As to conditions: primary screening, pot culture, 150 g/ha, sprayed at 3-leaf stage, result 15 days later.
Excerpt: as §1
In the case of `Cn1c(=O)n(-c2ccccc2)c(=O)c2cc(C(=O)C3=C(O)CCCC3=O)ccc21` [Compound 35], the “herbicidal activity inhibition ratio (%), Setaria viridis” value was determined as 50%.

`Cn1c(=O)n(-c2ccc(Cl)cc2)c(=O)c2cc(C(=O)C3=C(O)CC(C)(C)CC3=O)ccc21` [Compound 2]: the “herbicidal activity inhibition ratio (%), Setaria viridis” value amounted to 80%.

For the compound `COc1ccc(-n2c(=O)c3cc(C(=O)C4=C(O)CC(C)(C)CC4=O)ccc3n(C)c2=O)cc1` [Compound 58], the “herbicidal activity inhibition ratio (%), Setaria viridis” value is reported as 60%.

Consider `Cn1c(=O)n(-c2cc(C(F)(F)F)ccc2Cl)c(=O)c2cc(C(=O)C3=C(O)CCCC3=O)ccc21` [Compound 60], for which the “herbicidal activity inhibition ratio (%), Setaria viridis” value amounted to 80%.

On to `Cc1ccccc1-n1c(=O)[nH]c2ccc(C(=O)C3=C(O)CC(C)(C)CC3=O)cc2c1=O` [Compound 59], for which the “herbicidal activity inhibition ratio (%), Setaria viridis” value was 10%.

Consider `Cc1ccccc1-n1c(=O)c2c(C)c(C(=O)C3=C(O)CCCC3=O)ccc2n(C)c1=O` [Compound 82], for which the “herbicidal activity inhibition ratio (%), Setaria viridis” value was determined as 100%.

With `Cn1c(=O)n(-c2cccc(Cl)c2)c(=O)c2cc(C(=O)C3=C(O)CC(C)(C)CC3=O)ccc21` [Compound 4], the “herbicidal activity inhibition ratio (%), Setaria viridis” value worked out at 90%.

Another assay relates to echinochloa crusgalli. The assay is described as above. The assay is classed as in vivo. The note with it: primary screening, pot culture, 150 g/ha, sprayed at 3-leaf stage, result 15 days later.
Excerpt: as §1
Consider `Cn1c(=O)n(-c2ccccc2)c(=O)c2cc(C(=O)C3=C(O)CCCC3=O)ccc21` [Compound 35], for which the “herbicidal activity inhibition ratio (%), Echinochloa crusgalli” value came to 65%.

With `Cn1c(=O)n(-c2ccc(Cl)cc2)c(=O)c2cc(C(=O)C3=C(O)CC(C)(C)CC3=O)ccc21` [Compound 2], the “herbicidal activity inhibition ratio (%), Echinochloa crusgalli” value was determined as 80%.

On to `COc1ccc(-n2c(=O)c3cc(C(=O)C4=C(O)CC(C)(C)CC4=O)ccc3n(C)c2=O)cc1` [Compound 58], for which the “herbicidal activity inhibition ratio (%), Echinochloa crusgalli” value worked out at 80%.

Take `Cn1c(=O)n(-c2cc(C(F)(F)F)ccc2Cl)c(=O)c2cc(C(=O)C3=C(O)CCCC3=O)ccc21` [Compound 60]: the “herbicidal activity inhibition ratio (%), Echinochloa crusgalli” value is on record as 65%.

Consider `Cc1ccccc1-n1c(=O)[nH]c2ccc(C(=O)C3=C(O)CC(C)(C)CC3=O)cc2c1=O` [Compound 59], for which the “herbicidal activity inhibition ratio (%), Echinochloa crusgalli” value worked out at 0%.

As to `Cc1ccccc1-n1c(=O)c2c(C)c(C(=O)C3=C(O)CCCC3=O)ccc2n(C)c1=O` [Compound 82], the “herbicidal activity inhibition ratio (%), Echinochloa crusgalli” value was 100%.

Turning to `Cn1c(=O)n(-c2cccc(Cl)c2)c(=O)c2cc(C(=O)C3=C(O)CC(C)(C)CC3=O)ccc21` [Compound 4], the “herbicidal activity inhibition ratio (%), Echinochloa crusgalli” value worked out at 85%.

Another assay deals with abutilon theophrasti. Described as above. The assay is classed as in vivo. The note with it: primary screening, pot culture, 150 g/ha, sprayed at 3-leaf stage, result 15 days later.
Excerpt: as §1
Regarding `Cn1c(=O)n(-c2ccccc2)c(=O)c2cc(C(=O)C3=C(O)CCCC3=O)ccc21` [Compound 35], the “herbicidal activity inhibition ratio (%), Abutilon theophrasti” value is 80%.

Regarding `Cn1c(=O)n(-c2ccc(Cl)cc2)c(=O)c2cc(C(=O)C3=C(O)CC(C)(C)CC3=O)ccc21` [Compound 2], the “herbicidal activity inhibition ratio (%), Abutilon theophrasti” value was found to be 100%.

Regarding `COc1ccc(-n2c(=O)c3cc(C(=O)C4=C(O)CC(C)(C)CC4=O)ccc3n(C)c2=O)cc1` [Compound 58], the “herbicidal activity inhibition ratio (%), Abutilon theophrasti” value is 100%.

As to `Cn1c(=O)n(-c2cc(C(F)(F)F)ccc2Cl)c(=O)c2cc(C(=O)C3=C(O)CCCC3=O)ccc21` [Compound 60], the “herbicidal activity inhibition ratio (%), Abutilon theophrasti” value was 100%.

Take `Cc1ccccc1-n1c(=O)[nH]c2ccc(C(=O)C3=C(O)CC(C)(C)CC3=O)cc2c1=O` [Compound 59]: the “herbicidal activity inhibition ratio (%), Abutilon theophrasti” value came to 0%.

In the case of `Cc1ccccc1-n1c(=O)c2c(C)c(C(=O)C3=C(O)CCCC3=O)ccc2n(C)c1=O` [Compound 82], the “herbicidal activity inhibition ratio (%), Abutilon theophrasti” value came out at 100%.

As for `Cn1c(=O)n(-c2cccc(Cl)c2)c(=O)c2cc(C(=O)C3=C(O)CC(C)(C)CC3=O)ccc21` [Compound 4], the “herbicidal activity inhibition ratio (%), Abutilon theophrasti” value was determined as 100%.
